Test results reported in patent publication US11478466B2, “Small molecule promoting osteoblast differentiation” (Cornell University, priority 2019, dated 2022).

B1: RANKL: Receptor activator of nuclear factor kB ligand, positive control to stimulate osteoclast differentiation (protein, UniProt O14788 140-317, looked up)
Tumor necrosis factor ligand …: IRAEKAMVDGSWLDLAKRSKLEAQPFAHLTINATDIPSGSHKVSLSSWYHDRGWAKISNMTFSNGKLIVNQDGFYYLYANICFRHHETSGDLATEYLQLMVYVTKTSIKIPSSHTLMKGGSTKYWSGNSEFHFYSINVGGFFKLRSGEEISIEVSNPSLLDPDQDATYFGAFKVRDID

Legend:
Format in all cases: cell-based, mouse
[1] = tested on: JNK p54; assay: Western blotting of JNK in C2C12 cells
Method: (§1) Whole cell extracts were collected from C2C12 or BRITER cells in complete lysis buffer (20 mM Tris, 150 mM NaCl, 50 mM NaF, 1% NP40 substitute, HALT protease inhibitor cocktail (ThermoScientific). Proteins were resolved by electrophoresis on pre-cast 10% NuPage Bis-Tris gels (Invitrogen) and transferred to PVDF membranes (Bio-Rad). Membranes were blocked in 5% BSA-TBS-0.5% Tween-20 for 15 minutes, then incubated at 4° overnight with primary antibodies. Antibodies used were: rabbit anti-phospho-p38 MAPK (cat. no. 9211), anti-p38 MAPK XP (8690), anti-phospho-SMAD1/5 (9516), anti-SMAD1 XP (6944), anti-phospho-SMAD2/3 (8828), anti-SMAD2/3 XP (8685), anti-phospho-JNK (4668), anti-SAPK/JNK (9252), anti-phospho-Akt XP (4060), pan anti-Akt (4691), anti-phospho ERK p42/p44 (4377), anti-ERK p42/p44 (9102), anti-phospho-MKK3/6 (12280), anti-MKK3 (8535), anti-phospho-TAK1 (4531), anti-TAK1 (5206), anti-HA (3274), and anti-FLAG (14793); all from Cell Signaling); and mouse anti-p38α (cat. no. 33-1300), anti-p38β (33-8700; both ThermoFisher) and anti-β-actin (Sigma A1978). Proteins were visualized with HRP-conjugated secondary antibodies (Bio-Rad) with WestPico (ThermoFisher) or Immobilon (Millipore) chemiluminescence reagents. Images were obtained and analyzed for relative densitometric relationships on a LI-COR C-DiGit scanner using Image Studio software.

[2] = tested on: p38 MAPK; assay: Western blotting of p38 MAPK phosphorylation in C2C12 cells; details: C2C12, western blotting
Method: as §1

[3] = tested on: alkaline phosphatase (ALP); assay: ALP expression staining in C2C12 cells; details: C2C12, 2 days, 10 μM
Method: C2C12 cells were treated for 2 days with 10 μM DIPQUO or structural analogs, 1 ng/ml rhBMP4, or with inhibitors as noted in figure legends, and then fixed briefly in 70% acetone/10% formaldehyde/20% citrate. Staining was achieved using the leukocyte alkaline phosphatase kit (Sigma 86R-1KT) according to the manufacturer's instructions. Expression of ALP was confirmed and quantified by flow cytometric analysis, using an Accuri C6 flow cytometer. Briefly, control- or DIPQUO-treated C2C12 cells were detached and harvested on day 2 using PBS-based enzyme-free cell detachment solution (ThermoFisher). 2×10^5 cells were incubated on ice for 30 minutes with 10 μl APC-conjugated ALPL antibody (R&D Systems), and washed in ice-cold PBS before analysis. Live cells were gated and analyzed in CFlow Plus software and then data was converted to FlowJo to achieve publication-level resolution. For siRNA experiments, gene-specific oligonucleotides were obtained for mouse p38-alpha (Cell Signaling) and p38-beta (Santa Cruz). Signal Silence scramble siRNA control oligonucleotide was purchased from Cell Signaling. C2C12 cells at 70% confluency were transfected in 12-well plates using Lipofectamine RNAiMax reagent (Invitrogen) according to manufacturer's instructions. Transfected cells were treated 24 hours later with DMSO or 10 μM DIPQUO, and siRNA transfection was repeated after 48 hours without changing culture media. After an additional 3 days, cells were either fixed and stained for ALP expression or analyzed for ALP activity using the AttoPhos Substrate kit. Hemagglutinin and FLAG epitope-tagged MKK3 (pMT2-HA-MKK3) and MKK6 (pcDNA3-FLAG-MKK6) constructs were obtained from Addgene and transfected into C2C12 cells using Lipofectamine LTX with Plus Reagent (ThermoFisher) according to manufacturer's instructions and cell extracts analyzed for protein expression and activity as described below.

[4] = tested on: RAW 264.7 murine macrophage cell line; assay: Osteoclast differentiation (TRAP staining, qRT-PCR) in RAW 264.7 cells; details: RAW 264.7, 4 days; DIPQUO 10 μM, RANKL 50 ng/ml
Method: To address the specificity of DIPQUO for stimulating an osteogenic versus osteoclastic program, the RAW 264.7 murine macrophage cell line was assayed for osteoclast differentiation by staining for tartrate-resistant acid phosphatase (TRAP) to distinguish multinucleated osteoclasts from macrophages. […] Thus, DIPQUO appears to be primarily supportive of osteogenesis.
The RAW 264.7 macrophage cell line was purchased from ATCC and maintained in DMEM with 10% FBS. Cells were treated with 10 μM DIPQUO or 50 ng/ml RANKL (Sigma) for 4 days. Cells were fixed in 70% acetone/10% formaldehyde/20% citrate and TRAP staining was achieved using the Leukocyte Acid Phosphatase kit (Sigma 387A-1KT).
For quantitative RT-PCR analysis of gene expression in C2C12 cultures, cells were treated for 2 days with 10 μM DIPQUO and harvested into Trizol reagent (Invitrogen). One microgram of RNA was reverse transcribed using the VILO-RT kit (Invitrogen) to generate cDNA, which was diluted 1:25 in RNase-free H2O for qPCR with Sybr green using the Roche 480 II LightCycler and the 2^−ΔΔCT method (Livak and Schmittgen, 2001). For analysis of osteoclast gene expression, RAW 264.7 cells were treated with DMSO, 50 ng/ml RANKL, or 10 μM DIPQUO for 4 days, then harvested into Trizol reagent and processed as above. Mouse qPCR primers are as follows. Runx2: F([…]) (SEQ ID NO:1); R([…]) (SEQ ID NO:2); Dlx5: F([…]) (SEQ ID NO:3); R([…]) (SEQ ID NO:4); Osterix: F([…]) (SEQ ID NO:5); R([…]) (SEQ ID NO:6); ALP: F([…]) (SEQ ID NO:7); R([…]) (SEQ ID NO:8); Osteocalcin: F([…]) (SEQ ID NO:9); R([…]) (SEQ ID NO:10); Osteoactivin: F([…]) (SEQ ID NO:11); R([…]) (SEQ ID NO:12); CTSK: F([…]) (SEQ ID NO:13); R([…]) (SEQ ID NO:14); MMP9: F([…]) (SEQ ID NO:15); R([…]) (SEQ ID NO:16); Gapdh F([…]) (SEQ ID NO:17); R([…]) (SEQ ID NO:18). RNA-seq studies were carried out with the assistance of the Weill Cornell Genomics Core Facility, using the Illumina HiSeq4000 next-generation sequencer to generate reads from cDNA libraries generated from three biological replicates of day 2 DMSO- or DIPQUO-treated C2C12 cells. […]

Molecule	JNK p54 signaling [1]	p38 MAPK signaling (phosphorylation) [2]	ALP expression by staining [3]	TRAP staining of multinucleated osteoclasts [4]
N#CC(c1ccnc(NCCc2cccnc2)n1)c1nc2ccccc2s1 (stereo not shown) [JNK inhibitor V, reference compound]	suppress JNK p54	activate p38 MAPK	did not lead to ALP-positive staining	–
B1	–	–	–	found to promote both TRAP staining
